From US20230101747A1 (Schrödinger, Inc., priority 2019, published 2023)

Tests used:
[1] = target: T1, Full length human CDC7 protein co-expressed with DBF4 (Homo sapiens, UniProt O00311); assay: CDC7 kinase biochemical assay (ADP-Glo, PDKtide substrate); details: 0.1 nM CDC7/DBF4, 1 uM ATP, 10 uM PDKtide, 4 h; read-out: CDC7 ADP-Glo PDKtide IC50
T1 construct: Full length human CDC7 protein co-expressed with DBF4; purchased SignalChem (China)
Method in brief: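 Full-length human CDC7 co-expressed with DBF4 (0.1 nM) incubated 4 h with 1 uM ATP and 10 uM PDKtide in 40 mM Tris pH 7.5, 20 mM MgCl2, 0.1 mg/ml BSA, 50 uM DTT. ADP formed read by ADP-Glo luminescence. % inhibition scaled between DMSO (high) and reference CDC7 inhibitor (low) controls.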

[2] = tested on: phosphorylation of MCM2 S53 (CDC7 substrate) in colo205 cells; assay: Phosphorylated MCM2 MSD electrochemiluminescence assay; assay type: cell-based; details: Homo sapiens, COLO 205; colo205 cells, 20 h incubation; read-out: pMCM2-S53 MSD Colo205 IC50
Method: Phosphorylated MCM2 MSD Electrochemiluminescence Assay
The effect of CDC7 inhibitors on cellular phosphorylation of the CDC7 substrate MCM2 was determined using the following protocol:
A total of 40,000 colo205 cells in 100 uL culture medium (1640 medium+10% Fetal bovine serum+1% Penicillin-Streptomycin) were plated in 96-well cell culture plates and allowed to attach for 6 hours. 3-fold serial dilutions of test compounds were prepared in completed PBS at 25× final concentration and 4 uL of each were added to the cells and incubated for 20 hours at 37° C., 5% CO2. Each concentration was tested in duplicate. After the 20 h incubation, cells were washed with 150 uL PBS and lysed with 40 uL MSD lysis buffer (obtained from Meso Scale Diagnostics) supplied with 1× complete ULTRA cocktail inhibitor (obtained from Roche). To detect phosphorylation of MCM2 S53, 30 μL of capture antibody solution (obtained from Abnova, catalog number H00004171-M01, 1:500) was added to each well of MULTI-ARRAY 96-well High Bind Plate, and incubated overnight. The antibody solution was removed, wells blocked with BSA solution and plates washed, followed by addition of 30 ul of cell lysate per well. After 2 h incubation, plates were washed. 30 μL of 1× detection antibody solution (obtained from Abcam, catalog number ab109133, 1:1000) was then added to each well and incubate for 1 hour. Plates were washed and 30 μL of 1× secondary antibody solution (obtained from MSD, catalog number R32AB-1, 1:5000) was added to each well and incubate for 1 hour. Plates were washed and 150 μL of 1× Read Buffer T was added to each well of the MSD plate. The electrochemiluminescence signal was measured on a MESO SECTOR S600 plate reader. The percentage of remaining phosphorylated MCM2 signal was calculated following the equation below.
HC (high control): Cells treated with DMSO Cpds: Cells treated with test compounds LC (low control): Cells treated with positive control CDC7 inhibitor

T1 sequence (O00311 whole entry): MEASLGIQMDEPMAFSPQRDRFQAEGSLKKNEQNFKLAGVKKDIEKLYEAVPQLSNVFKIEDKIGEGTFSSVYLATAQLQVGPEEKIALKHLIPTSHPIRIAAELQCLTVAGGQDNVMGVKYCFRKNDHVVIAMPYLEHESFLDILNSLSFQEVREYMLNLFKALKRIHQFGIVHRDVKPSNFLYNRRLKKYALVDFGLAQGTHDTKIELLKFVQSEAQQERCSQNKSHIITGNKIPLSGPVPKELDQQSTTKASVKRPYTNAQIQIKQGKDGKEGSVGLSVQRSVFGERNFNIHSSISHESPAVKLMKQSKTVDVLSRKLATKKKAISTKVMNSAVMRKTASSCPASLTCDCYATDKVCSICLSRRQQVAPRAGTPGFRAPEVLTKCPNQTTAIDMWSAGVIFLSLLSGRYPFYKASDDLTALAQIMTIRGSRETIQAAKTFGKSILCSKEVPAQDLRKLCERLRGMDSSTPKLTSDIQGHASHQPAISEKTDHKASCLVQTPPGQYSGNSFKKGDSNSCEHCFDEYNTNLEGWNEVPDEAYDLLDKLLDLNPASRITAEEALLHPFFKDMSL
T1 sequence (Q9UBU7 whole entry partner): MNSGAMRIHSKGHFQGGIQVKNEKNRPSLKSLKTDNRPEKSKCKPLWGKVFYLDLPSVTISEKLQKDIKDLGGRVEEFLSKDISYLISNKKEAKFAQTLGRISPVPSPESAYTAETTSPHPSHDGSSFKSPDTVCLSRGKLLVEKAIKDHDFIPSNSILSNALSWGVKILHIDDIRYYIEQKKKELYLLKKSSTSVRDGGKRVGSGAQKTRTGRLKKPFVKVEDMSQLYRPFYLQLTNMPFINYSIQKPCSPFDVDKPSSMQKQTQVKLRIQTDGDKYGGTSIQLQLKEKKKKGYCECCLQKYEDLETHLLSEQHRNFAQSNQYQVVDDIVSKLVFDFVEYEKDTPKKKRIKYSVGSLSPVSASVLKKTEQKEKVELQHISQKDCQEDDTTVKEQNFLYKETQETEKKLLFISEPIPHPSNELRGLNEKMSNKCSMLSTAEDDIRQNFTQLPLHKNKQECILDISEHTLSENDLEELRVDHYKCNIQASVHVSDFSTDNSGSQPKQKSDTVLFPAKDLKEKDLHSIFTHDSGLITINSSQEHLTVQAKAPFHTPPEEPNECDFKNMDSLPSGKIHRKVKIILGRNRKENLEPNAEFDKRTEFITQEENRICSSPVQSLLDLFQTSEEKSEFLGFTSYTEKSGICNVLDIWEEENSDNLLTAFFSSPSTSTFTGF

IC50 [1]: 1 to 10 nM
IC50 [2]: 1810 nM
Structure (SMILES): O=C1NC[C@@H](COCc2ccccc2)N2CCOc3c(-c4cn[nH]c4)sc1c32 [Compound 38, (S)-6-((benzyloxy)methyl)-2-(1H-pyrazol-4-yl)-4,5,7,8-tetrahydro-3-oxa-1-thia-5a,8-diazabenzo[cd]azulen-9(6H)-one]
